Target: T1, TRAP1 enzyme (Homo sapiens, UniProt Q12931)
T1 construct: 150 nM Trap1 enzyme was incubated with various concentrations of the test compound
T1 sequence (Q12931 60-704): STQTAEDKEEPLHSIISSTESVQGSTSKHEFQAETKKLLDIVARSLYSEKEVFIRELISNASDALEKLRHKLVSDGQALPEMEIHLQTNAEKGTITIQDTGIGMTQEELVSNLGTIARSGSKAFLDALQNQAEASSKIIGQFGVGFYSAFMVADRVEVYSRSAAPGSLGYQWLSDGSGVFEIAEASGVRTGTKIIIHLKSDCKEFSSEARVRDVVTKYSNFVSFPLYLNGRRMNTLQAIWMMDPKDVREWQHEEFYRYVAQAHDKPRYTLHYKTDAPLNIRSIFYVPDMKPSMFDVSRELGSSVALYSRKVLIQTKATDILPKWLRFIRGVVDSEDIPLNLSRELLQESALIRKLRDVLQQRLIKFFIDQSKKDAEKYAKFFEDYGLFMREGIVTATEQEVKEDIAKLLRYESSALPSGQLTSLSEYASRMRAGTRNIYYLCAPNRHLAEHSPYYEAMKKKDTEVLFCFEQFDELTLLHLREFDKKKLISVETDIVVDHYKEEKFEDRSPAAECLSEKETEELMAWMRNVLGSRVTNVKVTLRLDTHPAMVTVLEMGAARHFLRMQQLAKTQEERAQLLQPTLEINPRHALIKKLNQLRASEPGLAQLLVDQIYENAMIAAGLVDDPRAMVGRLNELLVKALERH
Test: ADP Glo assay of TRAP1 ATPase activity
Assay type: biochemical
Conditions: for EC50: concentration for half maximal activation, read-out: ADP GLO DRC: GeoMean EC50; for Emax: maximal percent activation, read-out: ADP GLO DRC: Mean Emax
Outline: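 Compound (0.79–100 μM) was preincubated 30 min at 37° C with 150 nM TRAP1 in 25 mM Pipes pH 7.5, 40 mM KCl, 0.05 mM MgCl2. Reaction started with 20 μM ATP, 60 min at 37° C. ADP measured by luminescence against a standard curve; activation fitted sigmoidally for EC50 and Emax.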

Structure (SMILES)	EC50 [µM]	Emax [%]
COc1ncc(NC(=O)c2csc3c2CN(C(=O)OC(C)(C)C)CC3)cc1S(=O)(=O)Nc1c(C)cccc1C [compound 1949, tert-butyl 3-((5-(N-(2,6-dimethylphenyl)sulfamoyl)-6-methoxypyridin-3-yl)carbamoyl)-6,7-dihydrothieno[3,2-c]pyridine-5(4H)-carboxylate]	< 10	200 to 300
COc1ncc(NC(=O)c2csc3c2CN(C)CC3)cc1S(=O)(=O)Nc1c(C)cccc1C [compound 1956, N-(5-(N-(2,6-dimethylphenyl)sulfamoyl)-6-methoxypyridin-3-yl)-5-methyl-4,5,6,7-tetrahydrothieno[3,2-c]pyridine-3-carboxamide]	20 to 100	200 to 300
COc1ncc(NC(=O)c2ncoc2C)cc1S(=O)(=O)Nc1ccc(Cl)cc1 [compound 1959, N-(5-(N-(4-chlorophenyl)sulfamoyl)-6-methoxypyridin-3-yl)-5-methyloxazole-4-carboxamide]	10 to 20	160 to 199
COc1ncc(NC(=O)c2csc(-c3ccccc3)n2)cc1S(=O)(=O)Nc1c(C(F)(F)F)cccc1C(F)(F)F [compound 1970, N-(5-(N-(2,6-bis(trifluoromethyl)phenyl)sulfamoyl)-6-methoxypyridin-3-yl)-2-phenylthiazole-4-carboxamide]	10 to 20	200 to 300
COc1ncc(NC(=O)c2csc3c2CNCC3)cc1S(=O)(=O)Nc1c(C)cccc1C [compound 1972, N-(5-(N-(2,6-dimethylphenyl)sulfamoyl)-6-methoxypyridin-3-yl)-4,5,6,7-tetrahydrothieno[3,2-c]pyridine-3-carboxamide]	20 to 100	160 to 199
COc1ccc(F)cc1C(=O)Nc1cnc(OC)c(S(=O)(=O)Nc2c(C)cccc2C)c1 [compound 1990, N-(5-(N-(2,6-dimethylphenyl)sulfamoyl)-6-methoxypyridin-3-yl)-5-fluoro-2-methoxybenzamide]	10 to 20	200 to 300
COc1ncc(NC(=O)c2csc(-c3ccccc3)n2)cc1S(=O)(=O)Nc1ccc(C(F)(F)F)cn1 [compound 2005]	20 to 100	119 to 159
COc1ncc(NC(=O)c2csc(-c3ccccc3)n2)cc1S(=O)(=O)Nc1c(C#N)cccc1C(F)(F)F [compound 2068]	20 to 100	200 to 300
COc1ncc(NC(=O)c2csc(-c3ccccc3)n2)cc1S(=O)(=O)Nc1ncc(C(F)(F)F)cn1 [compound 2069]	20 to 100	200 to 300
COc1ncc(NC(=O)c2csc(-c3ccccc3)n2)cc1S(=O)(=O)Nc1sc2c(c1C#N)CCCC2 [compound 2088]	20 to 100	200 to 300
COc1ncc(NC(=O)c2ncc(-c3ccccc3)o2)cc1S(=O)(=O)Nc1cccc(C(F)(F)F)n1 [compound 2119]	20 to 100	200 to 300
COc1ncc(NC(=O)c2csc(-c3ccccc3)n2)cc1S(=O)(=O)Nc1cccc(C#N)n1 [compound 2142]	20 to 100	200 to 300
COc1ncc(NC(=O)c2ncc(-c3ccccc3)o2)cc1S(=O)(=O)Nc1cccc(C#N)n1 [compound 2148]	20 to 100	160 to 199
COc1ncc(NC(=O)c2coc(-c3cc(F)c(F)c(F)c3)n2)cc1S(=O)(=O)Nc1cccc(C(F)(F)F)n1 [compound 2151]	20 to 100	200 to 300
COc1ncc(NC(=O)c2ncc(-c3ccccc3)o2)cc1S(=O)(=O)Nc1cc(C(F)(F)F)n[nH]1 [compound 2361]	20 to 100	119 to 159
COc1ncc(NC(=O)c2csc(-c3ccccc3)n2)cc1S(=O)(=O)Nc1cc(C(F)(F)F)ncc1C [compound 2365]	20 to 100	200 to 300
COc1ncc(NC(=O)c2csc(-c3cccnc3)n2)cc1S(=O)(=O)Nc1ccc(F)c(F)c1C [compound 2390]	10 to 20	200 to 300
COc1ncc(NC(=O)c2ncc(-c3ccccc3)o2)cc1S(=O)(=O)Nc1nc(C(C)(C)C)ns1 [compound 2396]	20 to 100	160 to 199

The remaining lines, values ahead:

EC50 [µM]	Emax [%]	Structure (SMILES)
< 10	119 to 159	COc1ncc(NC(=O)c2coc(-c3ccccc3)n2)cc1S(=O)(=O)Nc1ccc(F)cc1C [compound 1950, N-(5-(N-(4-fluoro-2-methylphenyl)sulfamoyl)-6-methoxypyridin-3-yl)-2-phenyloxazole-4-carboxamide]
20 to 100	119 to 159	COc1ncc(NC(=O)c2csc(-c3ccccc3)n2)cc1S(=O)(=O)Nc1c(C)cccc1O [compound 1953, N-(5-(N-(2-hydroxy-6-methylphenyl)sulfamoyl)-6-methoxypyridin-3-yl)-2-phenylthiazole-4-carboxamide]
20 to 100	119 to 159	COc1ncc(NC(=O)c2csc(-c3ccccc3)n2)cc1S(=O)(=O)Nc1sccc1C [compound 1954, N-(6-methoxy-5-(N-(3-methylthiophen-2-yl)sulfamoyl)pyridin-3-yl)-2-phenylthiazole-4-carboxamide]
20 to 100	160 to 199	COc1ncc(NC(=O)c2coc(-c3ccccc3)n2)cc1S(=O)(=O)Nc1c(Cl)cccc1C(F)(F)F [compound 1962, N-(5-(N-(2-chloro-6-(trifluoromethyl)phenyl)sulfamoyl)-6-methoxypyridin-3-yl)-2-phenyloxazole-4-carboxamide]
< 10	119 to 159	COc1ncc(NC(=O)c2coc(-c3ccccc3)n2)cc1S(=O)(=O)Nc1c(C)cc(C#N)cc1C [compound 1965, N-(5-(N-(4-cyano-2,6-dimethylphenyl)sulfamoyl)-6-methoxypyridin-3-yl)-2-phenyloxazole-4-carboxamide]
20 to 100	160 to 199	COc1ncc(NC(=O)c2coc(-c3ccccc3)n2)cc1S(=O)(=O)Nc1ncc(Cl)cc1C [compound 1966, N-(5-(N-(5-chloro-3-methylpyridin-2-yl)sulfamoyl)-6-methoxypyridin-3-yl)-2-phenyloxazole-4-carboxamide]
20 to 100	200 to 300	COc1ncc(NC(=O)c2coc(-c3ccccc3)n2)cc1S(=O)(=O)Nc1ncc(Cl)cc1F [compound 1977, N-(5-(N-(5-chloro-3-fluoropyridin-2-yl)sulfamoyl)-6-methoxypyridin-3-yl)-2-phenyloxazole-4-carboxamide]
< 10	160 to 199	COc1ncc(NC(=O)c2csc(-c3ccccc3)n2)cc1S(=O)(=O)Nc1c(C)csc1C [compound 1985, N-(5-(N-(2,4-dimethylthiophen-3-yl)sulfamoyl)-6-methoxypyridin-3-yl)-2-phenylthiazole-4-carboxamide]
< 10	200 to 300	COc1ncc(NC(=O)c2coc(-c3ccccc3)n2)cc1S(=O)(=O)Nc1c(C)cccc1C1CC1 [compound 1986, N-(5-(N-(2-cyclopropyl-6-methylphenyl)sulfamoyl)-6-methoxypyridin-3-yl)-2-phenyloxazole-4-carboxamide]
10 to 20	200 to 300	COc1ncc(NC(=O)c2coc(-c3ccccc3)n2)cc1S(=O)(=O)Nc1ccc(F)c(F)c1C [compound 2000]
10 to 20	160 to 199	COc1ncc(NC(=O)c2coc(-c3ccccc3)n2)cc1S(=O)(=O)Nc1cc(F)c(F)cc1C [compound 2002]
10 to 20	160 to 199	COc1ncc(NC(=O)c2csc(-c3ccccc3)n2)cc1S(=O)(=O)Nc1ccccc1CO [compound 2004]
< 10	160 to 199	COc1ncc(NC(=O)c2coc(-c3ccccc3)n2)cc1S(=O)(=O)Nc1c(C)ccc(C#N)c1C [compound 2072]
< 10	200 to 300	COc1ncc(NC(=O)c2c[nH]c(-c3ccccc3)n2)cc1S(=O)(=O)Nc1c(C)cccc1C [compound 2092]
10 to 20	200 to 300	COc1ncc(NC(=O)c2csc(-c3ccccc3)n2)cc1S(=O)(=O)Nc1cc(F)c(C)cc1C#N [compound 2155]
20 to 100	200 to 300	COc1ncc(NC(=O)c2coc(-c3ccccc3)n2)cc1S(=O)(=O)Nc1cc(C(F)(F)F)n[nH]1 [compound 2156]
20 to 100	160 to 199	COc1ncc(NC(=O)c2coc(-c3ccccc3)n2)cc1S(=O)(=O)Nc1cccc(C#N)n1 [compound 2157]
< 10	160 to 199	COc1ncc(NC(=O)c2ncc(-c3ccccc3)o2)cc1S(=O)(=O)Nc1ccc(F)c(F)c1C [compound 2366]
< 10	200 to 300	COc1ncc(NC(=O)c2coc(-c3ccccc3)n2)cc1S(=O)(=O)Nc1ccc(F)cc1C(C)C [compound 2381]
20 to 100	200 to 300	COc1ncc(NC(=O)c2coc(-c3cccnc3)n2)cc1S(=O)(=O)Nc1c(C)cccc1C [compound 2387]
20 to 100	119 to 159	COc1ncc(NC(=O)c2cnc(-c3ccccc3)o2)cc1S(=O)(=O)Nc1cccc(C(F)(F)F)n1 [compound 2397]
